Test results published in article PMC9120017, “Inhibition mechanism of the chloride channel TMEM16A by the pore blocker 1PBC” (Nature Communications, 2022).
Where two headings read alike, the source gives them in different places.

Target: T1, mouse TMEM16A mutant I640A (Mus musculus, UniProt Q8BHY3, I640A)
T1 construct: expressed in transfected cells; host or cells: HEK293T
T1 sequence (Q8BHY3 1-960 I640A): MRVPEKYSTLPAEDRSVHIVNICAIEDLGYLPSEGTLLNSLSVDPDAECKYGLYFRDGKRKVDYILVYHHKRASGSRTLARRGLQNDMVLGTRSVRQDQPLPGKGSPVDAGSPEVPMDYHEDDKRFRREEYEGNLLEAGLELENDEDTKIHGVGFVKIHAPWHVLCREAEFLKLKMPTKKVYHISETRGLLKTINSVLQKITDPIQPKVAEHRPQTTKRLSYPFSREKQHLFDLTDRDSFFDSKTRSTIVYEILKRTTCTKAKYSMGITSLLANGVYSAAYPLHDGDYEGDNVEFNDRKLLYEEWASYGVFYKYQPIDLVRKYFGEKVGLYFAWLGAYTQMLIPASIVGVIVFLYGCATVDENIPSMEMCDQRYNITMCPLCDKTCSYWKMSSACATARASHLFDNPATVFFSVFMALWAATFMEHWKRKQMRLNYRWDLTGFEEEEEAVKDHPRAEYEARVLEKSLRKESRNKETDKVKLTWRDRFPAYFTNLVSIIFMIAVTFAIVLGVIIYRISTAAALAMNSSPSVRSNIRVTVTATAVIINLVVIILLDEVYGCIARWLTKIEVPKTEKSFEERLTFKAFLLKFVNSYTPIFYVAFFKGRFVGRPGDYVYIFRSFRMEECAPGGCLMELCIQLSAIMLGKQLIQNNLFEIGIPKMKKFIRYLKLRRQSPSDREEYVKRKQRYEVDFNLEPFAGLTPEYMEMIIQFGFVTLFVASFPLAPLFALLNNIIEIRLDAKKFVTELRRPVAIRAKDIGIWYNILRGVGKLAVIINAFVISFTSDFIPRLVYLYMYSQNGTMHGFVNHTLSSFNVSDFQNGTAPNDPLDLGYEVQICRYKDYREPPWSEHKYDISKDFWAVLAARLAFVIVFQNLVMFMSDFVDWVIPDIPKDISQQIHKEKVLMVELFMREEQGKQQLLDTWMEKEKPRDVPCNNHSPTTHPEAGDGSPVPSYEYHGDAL
Assay: Inside-out patch recording of 1PBC block, mutant I640A
Type: cell-based
Conditions: for IC50: 15 µM Ca2+
Method: HEK293T cells (ATCC CRL-1573) were maintained in Dulbecco’s modified Eagle’s medium (DMEM; Sigma-Aldrich) supplemented with 10 U ml^−1 penicillin, 0.1 mg ml^−1 streptomycin (Sigma-Aldrich), 2 mM L-glutamine (Sigma-Aldrich), and 10% FBS (Sigma-Aldrich) in a humidified atmosphere containing 5% CO2 at 37 °C. HEK293S GnTI^− cells (ATCC CRL-3022) were maintained in HyClone HyCell TransFx-H medium (GE Healthcare) supplemented with 10 U ml^−1 penicillin, 0.1 mg ml^−1 streptomycin, 4 mM L-glutamine, 0.15% poloxamer 188 (Sigma-Aldrich), and 1% FBS in an atmosphere containing 5% CO2 at 185 rpm at 37 °C. The ac splice variant of mouse TMEM16A (UniProt ID: Q8BHY3), mouse TMEM16B (UniProt ID: Q8CFW1), or mouse TMEM16F (UniProt ID: Q6P9J9) bearing a 3C cleavage site, a Venus YFP, a Myc tag, and a Streptavidin-binding peptide (SBP) downstream of the open reading frame in a modified pcDNA3.1 vector (Invitrogen) were used as described previously[21],[31]. Mutations were introduced using a modified QuikChange method[58] and were verified by sequencing.
HEK293T cells were transfected with 3–4 μg DNA per 6 cm Petri dish using the calcium phosphate co-precipitation method and were used within 24–96 h after transfection. Recordings were performed on inside-out patches excised from HEK293T cells expressing the construct of interest. Patch pipettes were pulled from borosilicate glass capillaries (O.D. 1.5 mm, I.D. 0.86 mm, Sutter Instrument) and were fire-polished with a microforge (Narishige) before use. Pipette resistance was typically 3–8 MΩ when filled with the recording solutions detailed below. Seal resistance was typically 4 GΩ or higher. Voltage-clamp recordings were made using Axopatch 200B, Digidata 1550, and Clampex 10.7 (Molecular Devices). Analog signals were filtered with the in-built 4-pole Bessel filter at 10 kHz and were digitized at 20 kHz. Solution exchange was achieved using a gravity-fed system through a theta glass pipette mounted on an ultra-fast piezo-driven stepper (Siskiyou). […] All recordings were performed at 20 °C.
A symmetrical ionic condition was used throughout. Stock solution with Ca^2+-EGTA contained 150 mM NaCl, 5.99 mM Ca(OH)2, 5 mM EGTA, and 10 mM HEPES at pH 7.40. Stock solution with EGTA contained 150 mM NaCl, 5 mM EGTA, and 10 mM HEPES at pH 7.40. Free Ca^2+ concentrations were adjusted by mixing the stock solutions at the required ratios calculated using the WEBMAXC program (http://web.stanford.edu/~cpatton/webmaxcS.htm). Patch pipettes were filled with the stock solution with Ca^2+-EGTA, which has a free Ca^2+ concentration of 1 mM. 1PBC (ChemBridge) stock was reconstituted in anhydrous DMSO (Sigma-Aldrich) at 100 mM and stored at −20 °C. Working solutions with 1PBC were prepared by serial dilution. Unless otherwise stated, experiments were performed at a saturating Ca^2+ concentration as shown in Supplementary Table 1 and the primary data were corrected for current rundown as described previously[21],[25].
Concentration-response relations, obtained from the ratio of the I-V plots before and after the application of the blocker, were fitted to the Hill equation,1 I/Imax=1/1+IC50/[blocker]^h where I/Imax is the normalized current responses, IC50 defines the concentration at which inhibition is at its half-maximum, and h is the Hill coefficient.

IC50 (0 mV): 31.5 µM | remaining activity at 3 µM (0 mV, 1PBC conc 3, read-out: relative current in 1PBC (avr)): 90.3% | remaining activity at 10 µM (0 mV, 1PBC conc 10, read-out: relative current in 1PBC (avr)): 75.5% | remaining activity at 30 µM (0 mV, 1PBC conc 30, read-out: relative current in 1PBC (avr)): 52.3% | remaining activity at 100 µM (0 mV, 1PBC conc 100, read-out: relative current in 1PBC (avr)): 23.3% | remaining activity at 3 µM (3 µM 1PBC, +80 mV, saturating Ca2+ (15 µM), read-out: I/Imax): 89.4% | remaining activity at 3 µM (3 µM 1PBC, -80 mV, saturating Ca2+ (15 µM), read-out: I/Imax): 92.4% | remaining activity at 10 µM (10 µM 1PBC, +80 mV, saturating Ca2+ (15 µM), read-out: I/Imax): 67.9% | remaining activity at 10 µM (10 µM 1PBC, -80 mV, saturating Ca2+ (15 µM), read-out: I/Imax): 84.6% | remaining activity at 30 µM (30 µM 1PBC, +80 mV, saturating Ca2+ (15 µM), read-out: I/Imax): 43% | remaining activity at 30 µM (30 µM 1PBC, -80 mV, saturating Ca2+ (15 µM), read-out: I/Imax): 64.1% | remaining activity at 100 µM (100 µM 1PBC, +80 mV, saturating Ca2+ (15 µM), read-out: I/Imax): 17.7% | remaining activity at 100 µM (100 µM 1PBC, -80 mV, saturating Ca2+ (15 µM), read-out: I/Imax): 34.6% | normalised current (avr) (1PBC 3, V 0 mV): -0.001271 | normalised current (avr) (1PBC 3, V 40 mV): 0.2411 | normalised current (avr) (1PBC 3, V 60 mV): 0.367 | normalised current (avr) (1PBC 3, V 80 mV): 0.5025 | normalised current (avr) (1PBC 3, V 100 mV): 0.651 | normalised current (avr) (1PBC 3, V 120 mV): 0.7973 | normalised current (avr) (1PBC 3, V 140 mV): 0.965 | normalised current (avr) (1PBC 3, V -20 mV): -0.1226 | normalised current (avr) (1PBC 3, V -40 mV): -0.2495 | normalised current (avr) (1PBC 3, V -60 mV): -0.3836 | normalised current (avr) (1PBC 3, V -80 mV): -0.5286 | normalised current (avr) (1PBC 3, V -100 mV): -0.6862 | normalised current (avr) (1PBC 3, V -120 mV): -0.8514 | normalised current (avr) (1PBC 3, V -140 mV): -1.031 | normalised current (avr) (1PBC 10, V 0 mV): -0.001063 | normalised current (avr) (1PBC 10, V 40 mV): 0.1907 | normalised current (avr) (1PBC 10, V 60 mV): 0.2862 | normalised current (avr) (1PBC 10, V 80 mV): 0.3819 | normalised current (avr) (1PBC 10, V 100 mV): 0.495 | normalised current (avr) (1PBC 10, V 120 mV): 0.6083 | normalised current (avr) (1PBC 10, V 140 mV): 0.7528 | normalised current (avr) (1PBC 10, V -20 mV): -0.1054 | normalised current (avr) (1PBC 10, V -40 mV): -0.2204 | normalised current (avr) (1PBC 10, V -60 mV): -0.3486 | normalised current (avr) (1PBC 10, V -80 mV): -0.4836 | normalised current (avr) (1PBC 10, V -100 mV): -0.6367 | normalised current (avr) (1PBC 10, V -120 mV): -0.7969 | normalised current (avr) (1PBC 10, V -140 mV): -0.9705 | normalised current (avr) (1PBC 30, V 0 mV): -0.0007361 | normalised current (avr) (1PBC 30, V 40 mV): 0.1262 | normalised current (avr) (1PBC 30, V 60 mV): 0.1828 | normalised current (avr) (1PBC 30, V 80 mV): 0.2416 | normalised current (avr) (1PBC 30, V 100 mV): 0.3073 | normalised current (avr) (1PBC 30, V 120 mV): 0.3826 | normalised current (avr) (1PBC 30, V 140 mV): 0.476 | normalised current (avr) (1PBC 30, V -20 mV): -0.07452 | normalised current (avr) (1PBC 30, V -40 mV): -0.1601 | normalised current (avr) (1PBC 30, V -60 mV): -0.2555 | normalised current (avr) (1PBC 30, V -80 mV): -0.3668 | normalised current (avr) (1PBC 30, V -100 mV): -0.4877 | normalised current (avr) (1PBC 30, V -120 mV): -0.6228 | normalised current (avr) (1PBC 30, V -140 mV): -0.7629 | normalised current (avr) (1PBC 100, V 0 mV): -0.0003287 | normalised current (avr) (1PBC 100, V 60 mV): 0.07288 | normalised current (avr) (1PBC 100, V 80 mV): 0.09923 | normalised current (avr) (1PBC 100, V 100 mV): 0.1285 | normalised current (avr) (1PBC 100, V 120 mV): 0.1506 | normalised current (avr) (1PBC 100, V 140 mV): 0.1846 | normalised current (avr) (1PBC 100, V -20 mV): -0.0346 | normalised current (avr) (1PBC 100, V -40 mV): -0.07836 | normalised current (avr) (1PBC 100, V -60 mV): -0.1311 | normalised current (avr) (1PBC 100, V -80 mV): -0.1979 | normalised current (avr) (1PBC 100, V -100 mV): -0.2777 | normalised current (avr) (1PBC 100, V -120 mV): -0.3667 | normalised current (avr) (1PBC 100, V -140 mV): -0.4836 | IC50 (20 mV): 27.5 µM | remaining activity at 3 µM (20 mV, 1PBC conc 3, read-out: relative current in 1PBC (avr)): 89.4% | remaining activity at 10 µM (20 mV, 1PBC conc 10, read-out: relative current in 1PBC (avr)): 72.5% | remaining activity at 30 µM (20 mV, 1PBC conc 30, read-out: relative current in 1PBC (avr)): 49.1% | remaining activity at 100 µM (20 mV, 1PBC conc 100, read-out: relative current in 1PBC (avr)): 20.9% | IC50 (40 mV): 24.7 µM | remaining activity at 3 µM (40 mV, 1PBC conc 3, read-out: relative current in 1PBC (avr)): 89% | remaining activity at 10 µM (40 mV, 1PBC conc 10, read-out: relative current in 1PBC (avr)): 70.4% | remaining activity at 30 µM (40 mV, 1PBC conc 30, read-out: relative current in 1PBC (avr)): 46.6%
Compound: N#Cc1c(C(F)(F)F)cc(O)n2c1nc1ccccc12 [1PBC]
